In patent US20110306635A1, “PYRIDINE COMPOUNDS AS SUBTYPE SELECTIVE MODULATORS OF ALPHA2B AND /OR ALPHA 2C […]” (ALLERGAN ,INC., priority 2009, published 2011):

Experiments:
Assay type in all cases: cell-based
[1] = target: T1, alpha 2A adrenergic receptor (Homo sapiens, UniProt P08913); assay: RSAT (Receptor Selection and Amplification Technology) assay, alpha 2A; settings: cells expressing alpha 2A receptor alone; receptor-mediated growth response
T1 construct: expressed in transfected cells
T1 sequence (P08913 1-465): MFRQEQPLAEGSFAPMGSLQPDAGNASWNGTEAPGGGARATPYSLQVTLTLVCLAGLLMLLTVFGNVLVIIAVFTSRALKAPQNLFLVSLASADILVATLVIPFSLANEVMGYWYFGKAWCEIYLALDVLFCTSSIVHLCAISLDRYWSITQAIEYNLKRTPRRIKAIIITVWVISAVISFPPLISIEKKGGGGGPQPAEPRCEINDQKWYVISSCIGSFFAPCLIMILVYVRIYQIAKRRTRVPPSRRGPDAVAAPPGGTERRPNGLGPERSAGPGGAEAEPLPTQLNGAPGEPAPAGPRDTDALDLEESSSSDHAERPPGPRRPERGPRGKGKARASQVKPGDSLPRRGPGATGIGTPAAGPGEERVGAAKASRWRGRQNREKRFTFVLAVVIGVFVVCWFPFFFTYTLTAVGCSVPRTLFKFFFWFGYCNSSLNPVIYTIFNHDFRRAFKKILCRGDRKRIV
Description: (§1) The compounds were synthesized and tested for alpha adrenergic activity using the Receptor Selection and Amplification Technology (RSAT) assay (Messier et. al., 1995, Pharmacol. Toxicol. 76, pp. 308-311). Cells expressing each of the alpha-2 adrenergic receptors alone were incubated with the Compound 1 and a receptor-mediated growth response was measured. A compound's activity is expressed as its relative efficacy compared to a standard full agonist (see table). Compound of this invention activates alpha-2B and alpha-2C receptors.
(§2) The results of the RSAT assay with several exemplary compounds of the invention are disclosed in Table 1 below together with the chemical formulas of these exemplary compounds. EC50 values are nanomolar.

[2] = target: T2, alpha 2C adrenergic receptor (Homo sapiens, UniProt P18825); assay: RSAT (Receptor Selection and Amplification Technology) assay, alpha 2C; settings: for EC50: cells expressing alpha 2C receptor alone, receptor-mediated growth response; for RSAT efficacy, Alpha 2C: relative efficacy compared to a standard full agonist (value in parentheses)
T2 construct: expressed in transfected cells
T2 sequence (P18825 1-462): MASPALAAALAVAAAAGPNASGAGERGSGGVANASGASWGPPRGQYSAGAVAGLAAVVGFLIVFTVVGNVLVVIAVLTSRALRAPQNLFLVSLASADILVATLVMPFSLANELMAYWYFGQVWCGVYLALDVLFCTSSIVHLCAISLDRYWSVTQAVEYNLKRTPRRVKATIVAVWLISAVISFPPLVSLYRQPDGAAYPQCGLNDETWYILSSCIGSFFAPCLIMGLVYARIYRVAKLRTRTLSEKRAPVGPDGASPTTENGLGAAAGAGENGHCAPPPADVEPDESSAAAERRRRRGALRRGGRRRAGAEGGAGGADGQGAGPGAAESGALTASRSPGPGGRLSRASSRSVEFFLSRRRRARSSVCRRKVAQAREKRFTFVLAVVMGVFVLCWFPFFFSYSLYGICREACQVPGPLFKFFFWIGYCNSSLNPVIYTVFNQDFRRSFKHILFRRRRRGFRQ
Description: as §1, §2

[3] = target: T3, alpha 2B adrenergic receptor (Homo sapiens, UniProt P18089); assay: RSAT (Receptor Selection and Amplification Technology) assay, alpha 2B; settings: for EC50: cells expressing alpha 2B receptor alone, receptor-mediated growth response; for RSAT efficacy, Alpha 2B: relative efficacy compared to a standard full agonist (value in parentheses)
T3 construct: expressed in transfected cells
T3 sequence (P18089 1-450): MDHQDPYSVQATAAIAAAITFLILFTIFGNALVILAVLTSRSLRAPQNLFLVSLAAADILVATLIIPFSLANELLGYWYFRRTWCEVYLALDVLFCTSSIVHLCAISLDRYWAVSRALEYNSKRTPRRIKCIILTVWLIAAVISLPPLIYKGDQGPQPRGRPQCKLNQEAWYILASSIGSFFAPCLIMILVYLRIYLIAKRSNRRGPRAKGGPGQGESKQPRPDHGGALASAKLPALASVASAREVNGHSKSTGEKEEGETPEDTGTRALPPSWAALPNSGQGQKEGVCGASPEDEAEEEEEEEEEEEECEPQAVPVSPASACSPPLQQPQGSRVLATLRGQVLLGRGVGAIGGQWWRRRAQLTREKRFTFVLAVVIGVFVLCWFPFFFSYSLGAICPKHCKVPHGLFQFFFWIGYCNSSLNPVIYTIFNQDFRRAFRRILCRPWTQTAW
Description: as §1, §2

| SMILES | RSAT EC50 (nM); efficacy, Alpha 2A [1] | EC50 [2] | RSAT efficacy, Alpha 2C [2] | EC50 [3] | RSAT efficacy, Alpha 2B [3] |
| --- | --- | --- | --- | --- | --- |
| Cc1nccc(C(C)c2c[nH]cn2)c1C (stereo not shown) [4-(1-(1H-imidazol-4-yl)ethyl)-2,3-dimethylpyridine] | Not active | 1290 nM | 0.35 | 16.7 nM | 0.99 |
| CC(c1c[nH]cn1)c1ccnc2c1CCCC2 (stereo not shown) [4-(1-(1H-imidazol-4-yl)ethyl)-5,6,7,8-tetrahydroquinoline] | Not active | 370 nM | 0.35 | 23.5 nM | 1.12 |
